The target in one experiment is Histone deacetylase 2 (Homo sapiens, UniProt Q92769). Briefly: Inhibition of recombinant human HDAC2 using Boc-Lys (acetyl)-AMC as substrate preincubated with compound for 1 hr followed by substrate addition and measured after 30 mins by microplate reader assay.
For the next experiment, the system named is HeLa. Briefly: cells. The format is functional, cell-based. Particulars: Homo sapiens, 72 h.
The subject of experiment [1] is A549. The experiment is described as follows: Induction of apoptosis in human A549 cells assessed as viable cells at 2 uM incubated for 24 hrs by Annexin V-FITC/PI staining based flow cytometric analysis (reference value: 95.08%). The format is functional. (In general: In flow cytometry, cells or beads pass a laser one at a time.)
The next experiment concerns HCT-116. Briefly: cells. The note with it: Homo sapiens, HCT-116, 72 h.
Experiment [2] deals with A549. Briefly: Induction of apoptosis in human A549 cells assessed as late apoptotic cells at 2 uM incubated for 24 hrs by Annexin V-FITC/PI staining based flow cytometric analysis (reference value: 2.18%). The format is functional.
In experiment [3] the target is T1, Protein deacetylase HDAC6 (Homo sapiens, UniProt Q9UBN7).
T1 sequence (Q9UBN7 whole entry): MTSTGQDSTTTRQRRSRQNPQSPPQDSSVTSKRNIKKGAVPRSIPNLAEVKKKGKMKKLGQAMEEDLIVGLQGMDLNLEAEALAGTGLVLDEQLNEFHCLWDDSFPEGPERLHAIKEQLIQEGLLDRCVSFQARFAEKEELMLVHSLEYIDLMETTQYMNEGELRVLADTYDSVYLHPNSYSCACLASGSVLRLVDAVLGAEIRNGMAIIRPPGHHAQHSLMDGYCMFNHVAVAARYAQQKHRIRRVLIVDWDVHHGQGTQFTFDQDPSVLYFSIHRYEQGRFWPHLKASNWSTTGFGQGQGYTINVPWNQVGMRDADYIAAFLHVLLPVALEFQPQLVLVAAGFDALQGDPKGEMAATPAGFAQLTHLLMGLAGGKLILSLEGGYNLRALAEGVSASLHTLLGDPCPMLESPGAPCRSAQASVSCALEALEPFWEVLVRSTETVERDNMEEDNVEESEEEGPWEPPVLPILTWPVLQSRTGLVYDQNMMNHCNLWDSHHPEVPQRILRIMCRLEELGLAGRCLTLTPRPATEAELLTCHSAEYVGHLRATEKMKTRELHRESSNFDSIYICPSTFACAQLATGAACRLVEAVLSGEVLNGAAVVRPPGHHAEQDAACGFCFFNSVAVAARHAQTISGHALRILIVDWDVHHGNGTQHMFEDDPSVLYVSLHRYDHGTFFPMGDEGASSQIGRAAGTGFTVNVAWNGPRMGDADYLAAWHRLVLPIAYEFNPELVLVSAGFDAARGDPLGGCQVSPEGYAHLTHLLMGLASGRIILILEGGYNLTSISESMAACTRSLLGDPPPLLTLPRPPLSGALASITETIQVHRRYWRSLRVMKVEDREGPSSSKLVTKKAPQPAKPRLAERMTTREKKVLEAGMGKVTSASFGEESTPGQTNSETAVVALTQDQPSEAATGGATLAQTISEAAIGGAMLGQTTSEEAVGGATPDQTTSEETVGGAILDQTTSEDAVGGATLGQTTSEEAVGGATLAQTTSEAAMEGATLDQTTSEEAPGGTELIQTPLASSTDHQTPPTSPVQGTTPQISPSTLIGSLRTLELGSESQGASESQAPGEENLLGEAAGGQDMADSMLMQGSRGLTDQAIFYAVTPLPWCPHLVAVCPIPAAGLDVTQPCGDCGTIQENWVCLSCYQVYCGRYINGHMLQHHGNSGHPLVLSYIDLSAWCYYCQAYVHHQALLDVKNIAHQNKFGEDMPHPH
Briefly: Inhibition of recombinant human HDAC6 using Boc-Lys (acetyl)-AMC as substrate preincubated with compound for 1 hr followed by substrate addition and measured after 30 mins by microplate reader assay.

For experiment [4], the system named is A549. Briefly: Induction of apoptosis in human A549 cells assessed as early apoptotic cells at 2 uM incubated for 24 hrs by Annexin V-FITC/PI staining based flow cytometric analysis (reference value: 1.53%). The format is functional.
The next experiment deals with Histone deacetylase 3 (Homo sapiens, UniProt O15379). The experiment is described as follows: Inhibition of recombinant human HDAC3 using Boc-Lys (acetyl)-AMC as substrate preincubated with compound for 1 hr followed by substrate addition and measured after 30 mins by microplate reader assay.
Experiment [5] concerns the target Signal transducer and activator of transcription 3 (Homo sapiens, UniProt P40763). The experiment is described as follows: Binding affinity to STAT3 (unknown origin) assessed as dissociation constant by SPR assay. A general note: Surface plasmon resonance follows binding to a sensor surface in real time, without labels.
In experiment [6] the test system is A549. The experiment is described as follows: Induction of apoptosis in human A549 cells assessed as necrotic cells at 2 uM incubated for 24 hrs by Annexin V-FITC/PI staining based flow cytometric analysis (reference value: 1.20%). The format is functional.
The target of a further experiment is Histone deacetylase 1 (Homo sapiens, UniProt Q13547). The experiment is described as follows: Inhibition of recombinant human HDAC1 using Boc-Lys (acetyl)-AMC as substrate preincubated with compound for 1 hr followed by substrate addition and measured after 30 mins by microplate reader assay.
In experiment [7] the test system is A549. The experiment is described as follows: cells. The format is functional, cell-based. Particulars: Homo sapiens, A549, 72 h.
Description: Antiproliferative activity against human A549 cells assessed as inhibition of cell proliferation incubated for 72 hrs by CCK-8 assay
For the next experiment, the system named is HepG2. The experiment is described as follows: Antiproliferative activity against human HepG2 cells assessed as inhibition of cell proliferation incubated for 72 hrs by CCK-8 assay. Format: functional, cell-based. Particulars: HepG2, 72 h.
In experiment [8] the test system is A549. Briefly: In vivo antitumor activity against human A549 cells xenografted in female BALB/c nu/nu mouse assessed as tumor volume at 10 mg/kg, iv administered every 3 days and measured on 18 day relative to control. Format: functional. The note with it: time 3 day.

As a reminder, the IC50 is the concentration that inhibits the measured activity by half. As usually defined, the Kd is the equilibrium constant for the complex coming apart.

Sequence of Signal transducer and activator of transcription 3 (P40763 whole entry): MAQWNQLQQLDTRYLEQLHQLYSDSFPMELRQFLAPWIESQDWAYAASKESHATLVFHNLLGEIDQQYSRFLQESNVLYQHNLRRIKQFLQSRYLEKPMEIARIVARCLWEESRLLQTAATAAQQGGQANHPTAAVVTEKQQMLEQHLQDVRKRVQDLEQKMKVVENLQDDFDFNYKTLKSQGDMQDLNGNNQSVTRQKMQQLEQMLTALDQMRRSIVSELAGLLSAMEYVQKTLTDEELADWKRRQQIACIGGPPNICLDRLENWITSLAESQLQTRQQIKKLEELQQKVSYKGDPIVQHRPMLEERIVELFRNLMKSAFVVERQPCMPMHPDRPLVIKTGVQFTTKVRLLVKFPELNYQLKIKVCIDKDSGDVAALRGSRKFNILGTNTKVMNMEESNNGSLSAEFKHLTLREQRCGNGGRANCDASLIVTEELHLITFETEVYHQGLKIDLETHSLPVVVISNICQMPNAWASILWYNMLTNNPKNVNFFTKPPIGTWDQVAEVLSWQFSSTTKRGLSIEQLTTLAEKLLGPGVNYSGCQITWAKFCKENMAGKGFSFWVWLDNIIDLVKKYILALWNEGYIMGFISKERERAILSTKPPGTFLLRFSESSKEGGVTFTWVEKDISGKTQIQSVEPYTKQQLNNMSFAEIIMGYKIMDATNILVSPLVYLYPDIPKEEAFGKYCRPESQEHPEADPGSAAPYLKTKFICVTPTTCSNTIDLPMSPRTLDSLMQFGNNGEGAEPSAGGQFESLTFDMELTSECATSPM
Sequence of Histone deacetylase 2 (Q92769 whole entry): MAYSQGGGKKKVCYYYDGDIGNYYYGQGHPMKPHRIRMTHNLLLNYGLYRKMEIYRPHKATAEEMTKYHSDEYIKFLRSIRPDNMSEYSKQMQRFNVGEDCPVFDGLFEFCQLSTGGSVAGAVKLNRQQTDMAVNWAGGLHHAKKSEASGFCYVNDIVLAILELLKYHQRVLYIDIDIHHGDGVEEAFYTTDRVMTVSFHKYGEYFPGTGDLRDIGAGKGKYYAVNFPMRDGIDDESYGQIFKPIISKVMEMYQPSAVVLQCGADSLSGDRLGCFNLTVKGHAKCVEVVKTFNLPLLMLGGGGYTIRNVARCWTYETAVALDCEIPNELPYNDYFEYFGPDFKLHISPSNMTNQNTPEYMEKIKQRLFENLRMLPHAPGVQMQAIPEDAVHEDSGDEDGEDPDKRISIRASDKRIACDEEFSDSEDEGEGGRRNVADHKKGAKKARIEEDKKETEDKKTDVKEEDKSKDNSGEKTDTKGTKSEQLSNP
Sequence of Histone deacetylase 1 (Q13547 whole entry): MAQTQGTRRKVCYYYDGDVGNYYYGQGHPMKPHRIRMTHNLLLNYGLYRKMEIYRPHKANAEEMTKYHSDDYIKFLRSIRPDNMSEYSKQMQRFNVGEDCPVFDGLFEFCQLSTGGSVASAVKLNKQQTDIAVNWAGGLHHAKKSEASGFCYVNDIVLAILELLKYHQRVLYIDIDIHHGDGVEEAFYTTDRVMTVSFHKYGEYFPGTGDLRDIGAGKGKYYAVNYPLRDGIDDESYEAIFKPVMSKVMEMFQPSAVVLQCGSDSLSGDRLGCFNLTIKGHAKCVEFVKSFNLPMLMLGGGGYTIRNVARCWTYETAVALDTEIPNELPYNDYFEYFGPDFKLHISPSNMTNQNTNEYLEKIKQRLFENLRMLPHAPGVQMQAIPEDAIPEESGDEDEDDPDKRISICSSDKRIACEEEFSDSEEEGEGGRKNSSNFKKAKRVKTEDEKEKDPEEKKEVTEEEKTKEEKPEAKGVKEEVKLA
Sequence of Histone deacetylase 3 (O15379 whole entry): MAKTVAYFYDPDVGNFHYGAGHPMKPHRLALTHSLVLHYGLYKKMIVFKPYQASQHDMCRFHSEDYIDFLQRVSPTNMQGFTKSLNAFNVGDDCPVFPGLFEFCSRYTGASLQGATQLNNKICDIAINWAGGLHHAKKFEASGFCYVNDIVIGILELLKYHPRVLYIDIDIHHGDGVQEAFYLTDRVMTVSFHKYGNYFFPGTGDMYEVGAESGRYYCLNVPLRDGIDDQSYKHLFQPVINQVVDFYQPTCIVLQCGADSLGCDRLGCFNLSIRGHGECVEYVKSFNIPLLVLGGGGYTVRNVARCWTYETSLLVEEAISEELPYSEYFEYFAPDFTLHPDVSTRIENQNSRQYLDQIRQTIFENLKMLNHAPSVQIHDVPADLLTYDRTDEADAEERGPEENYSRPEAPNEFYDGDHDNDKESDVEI
Description for HCT-116: Antiproliferative activity against human HCT-116 cells assessed as inhibition of cell proliferation incubated for 72 hrs by CCK-8 assay
Description for HeLa: Antiproliferative activity against human Hela cells assessed as inhibition of cell proliferation incubated for 72 hrs by CCK-8 assay

For `C=C1C(=O)O[C@@H]2C[C@@]3(C)CCCC(=C)[C@@H]3C[C@H]12` [ISOALANTOLACTONE], the 50% inhibitory concentration (IC50) at Histone deacetylase 2 is more than 1 µM; in the experiment on HeLa it was 4.38 µM; in the experiment on HCT-116, 2.61 µM; in experiment [3], more than 1 µM; on Histone deacetylase 3, more than 1 µM; at Histone deacetylase 1, more than 1 µM. Also, the IC50 in the experiment with A549 [7] worked out at 1.81 µM; in the experiment on HepG2, 7.25 µM. Besides, the viability at 2 µM in the experiment on A549 [1] (Homo sapiens, A549, read-out: Activity) was 83.6%. Besides, the Activity is reported as 10.91% with A549 [2], 3.67% in the experiment on A549 [4] and 1.82% in the experiment on A549 [6]. The Kd in experiment [5] amounted to 46.1 µM.

On to `O=C(CCCCCCC(=O)Nc1ccccc1)NO` [VORINOSTAT], for which the Activity in the experiment on A549 [1] is given as 67.04%; in the experiment on A549 [2], 24.68%; in the experiment on A549 [4], 5.72%; in the experiment with A549 [6], 2.58%; in the experiment on A549 [8] it was 61%. In the experiment with HCT-116, this molecule gave an IC50 of 1.87 µM. The Kd in [5] is more than 50 µM.

For the origin of these results see ChEMBL document CHEMBL6071142, “Isoalantolactone/hydroxamic acid hybrids as potent dual STAT3/HDAC inhibitors and self-assembled nanoparticles for cancer therapy” (Eur J Med Chem, 2024).
